In patent US20240124387A1, “ACID RECOVERY” (GREENCOVERY B.V., priority 2021, published 2024):
Marks after values point to notes of the source that are not given here.

How the values were obtained:
[1] = Precipitation stage: eluate (desorption) samples sparged with CO2, acid quantified again; format: physicochemical; settings: for reduction of amino acid concentration in solution (in the eluate) after CO2 sparging: eluate samples with highest amino acid content, 0.425 M KOH in 93.5 wt. % ethanol; for reduction of organic acid concentration in solution after sparging with CO2: desorption samples of Example 1 (90 wt. % ethanol, 1M KOH)
Description: In the precipitation stage, the desorption samples were sparged with CO2, and the organic acids were quantified again the precipitation stage.
The eluate was separated into four samples of 7.5 mL each.

[2] = Precipitation with CO2 in solutions containing different amino acids, ethanol and water (table 3); format: physicochemical; settings: for Concentration of amino acid in the liquid, Before precipitation / Concentration of amino acid in the liquid, After precipitation / Precipitate: 0.5M NaOH; for Concentration of amino acid in the liquid, After precipitation / Precipitate: after CO2; for Precipitate: includes sodium (bi)carbonate; for share of the amino acid precipitated when providing CO2: 80 wt. % ethanol
From the text: A variety of eluates, comprising different amino acids, and solvent concentrations were subjected to the precipitation stage as summarized in table 3: […]

[3] = 20 wt. % water, 80% wt. % ethanol
[4] = 37.6 wt. % water, 62.4 wt. % ethanol
[5] = 50 wt. % water, 50 wt. % ethanol
[6] = second 7.5 mL eluate sample, 90 wt. % methanol, 0.85M KOH

SMILES	reduction of glutamic acid concentration in solution after CO2 sparging ([1]; 0.85 M KOH in 90 wt. % ethanol (AA4))	reduction of glutamic acid concentration in solution after CO2 sparging ([1]; 1M NaOH in 62.4 wt. % ethanol (AA5))	reduction of amino acid concentration in solution (in the eluate) after CO2 sparging [1]	Concentration of amino acid in the liquid, Before precipitation [2, 3]	Concentration of amino acid in the liquid, After precipitation [2, 3] [µg/mL]	Precipitate [2, 3] [g/L]	Concentration of amino acid in the liquid, Before precipitation [2, 4] [g/L]	Concentration of amino acid in the liquid, After precipitation [2, 4] [µg/mL]	Precipitate [2, 4] [g/L]	behaviour of the amino acid when providing CO2 ([2]; 50 wt. % ethanol)	Concentration of amino acid in the liquid, Before precipitation [2, 5] [g/L]	Concentration of amino acid in the liquid, After precipitation [2, 5] [µg/mL]	Precipitate [2, 5] [g/L]	behaviour of the amino acid when providing CO2 ([2]; 62.4% ethanol)	share of the amino acid precipitated when providing CO2 [2]	concentration in eluate sample after CO2 sparging [1, 6] [µg/mL]	concentration in eluate sample before CO2 sparging [1, 6] [µg/mL]	reduction of organic acid concentration in solution after sparging with CO2 [1]
N[C@@H](CCC(=O)O)C(=O)O [Glutamic acid]	approximately 74%	approximately 90%	approximately 68%	10.1* g/L	700	33.7	10.1	4800	30.5	–	–	–	–	–	–	–	–	–
NCCCC[C@H](N)C(=O)O [Lysine]	–	–	–	10.3 g/L	3400	32.5	10.4	10300	22.0	–	10.3	10600	25.9	–	–	–	–	–
N[C@@H](Cc1ccccc1)C(=O)O [Phenylalanine]	–	–	–	10.3 g/L	3600	27.4	10.2	9100	20.6	–	10.3	10300	16.9	–	–	–	–	–
N[C@@H](CCC(=O)[O-])C(=O)[O-].[Na+].[Na+] [Sodium glutamate]	–	–	–	10.1* g/L	800	35.5	10.1	4300	34.1	remained in solution	10.1	10800	17.5	partially precipitated	over 90%	–	–	–
CCCCCC(=O)O [caproate, caproic acid]	–	–	–	–	–	–	–	–	–	–	–	–	–	–	–	–	–	(essentially) no reduction
CC(O)C(=O)O (stereo not drawn) [lactate, lactic acid]	–	–	–	–	–	–	–	–	–	–	–	–	–	–	–	–	–	(essentially) no reduction

Now from value to molecule, other results behind:

reduction of glutamic acid concentration in solution after CO2 sparging ([1]; 0.85 M KOH in 90 wt. % ethanol (AA4))	reduction of glutamic acid concentration in solution after CO2 sparging ([1]; 1M NaOH in 62.4 wt. % ethanol (AA5))	reduction of amino acid concentration in solution (in the eluate) after CO2 sparging [1]	Concentration of amino acid in the liquid, Before precipitation [2, 3]	Concentration of amino acid in the liquid, After precipitation [2, 3] [µg/mL]	Precipitate [2, 3] [g/L]	Concentration of amino acid in the liquid, Before precipitation [2, 4] [g/L]	Concentration of amino acid in the liquid, After precipitation [2, 4] [µg/mL]	Precipitate [2, 4] [g/L]	behaviour of the amino acid when providing CO2 ([2]; 50 wt. % ethanol)	Concentration of amino acid in the liquid, Before precipitation [2, 5] [g/L]	Concentration of amino acid in the liquid, After precipitation [2, 5] [µg/mL]	Precipitate [2, 5] [g/L]	behaviour of the amino acid when providing CO2 ([2]; 62.4% ethanol)	share of the amino acid precipitated when providing CO2 [2]	concentration in eluate sample after CO2 sparging [1, 6] [µg/mL]	concentration in eluate sample before CO2 sparging [1, 6] [µg/mL]	SMILES	reduction of organic acid concentration in solution after sparging with CO2 [1]
–	–	> 99%	10.3 g/L	9100	20.7	9.6	9700	18.1	remained in solution	10.2	10200	12.6	remained in solution	less than 10%	–	–	CC(C)C[C@H](N)C(=O)O [Leucine, L-leucine]	–
–	–	–	10.2 g/L	4100	27.4	10.2	9600	21.2	–	10.3	9600	15.2	–	–	–	–	CSCC[C@H](N)C(=O)O [Methionine]	–
–	–	–	–	–	–	–	–	–	–	–	–	–	–	–	24300	24600	CC(=O)O [acetate]	–
–	–	~31%	–	–	–	–	–	–	–	–	–	–	–	–	–	–	C[C@H](N)C(=O)O [alanine, L-alanine]	–
